Measurements taken from PubChem BioAssay AID256 (DTP/NCI, 2004).
Where “and” joins values, the source holds several entries; their conditions need not be identical. Equal values may be shown once. Toxic doses and inconclusive results are not listed.

System: CD2F1 mice, L1210 leukemia ip, survival T/C
Assay: NCI In Vivo Anticancer Drug Screen. Data for tumor model L1210 Leukemia (intraperitoneal) in CD2F1 (CDF1) mice
Details: endpoint: mean survival time, higher = longer survival
Method in brief: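 Antitumor effect is scored in animals hosting a serially transplanted tumor. Values compare compound-dosed animals against vehicle-only controls as a simple quotient.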

[1] = dose: 100.0 mg/kg/injection, schedule: Q04DX003 (ip), vehicle: saline with Tween-80
[2] = dose: 200.0 mg/kg/injection, schedule: Q04DX003 (ip), vehicle: saline with Tween-80
[3] = dose: 400.0 mg/kg/injection, schedule: Q04DX003 (ip), vehicle: saline with Tween-80
[4] = dose: 50.0 mg/kg/injection, schedule: Q01DX009 (ip), vehicle: saline with Tween-80
[5] = dose: 100.0 mg/kg/injection, schedule: Q01DX009 (ip), vehicle: saline with Tween-80
[6] = dose: 200.0 mg/kg/injection, schedule: Q01DX009 (ip), vehicle: saline with Tween-80
[7] = dose: 100.0 mg/kg/injection, schedule: Q04DX002 (ip), vehicle: saline with Tween-80
[8] = dose: 100.0 mg/kg/injection, schedule: Q01DX001 (ip), vehicle: other
[9] = dose: 100.0 mg/kg/injection, schedule: Q01DX001 (ip), vehicle: saline with Tween-80
[10] = dose: 200.0 mg/kg/injection, schedule: Q01DX001 (ip), vehicle: saline with Tween-80
[11] = dose: 100.0 mg/kg/injection, schedule: Q04DX003 (ip), vehicle: Klucel (hydroxypropylcellulose) (HPC)

Structure (SMILES): CN(C)C(=O)C1C2CCCC(CC2)C1C(=O)N(C)C (centres undefined)
- T/C (dose: 100.0 mg/kg/injection, schedule: Q04DX002 (ip), vehicle: saline): 100 % of control
- T/C (dose: 200.0 mg/kg/injection, schedule: Q04DX002 (ip), vehicle: saline): 91 % of control
- T/C (dose: 400.0 mg/kg/injection, schedule: Q04DX002 (ip), vehicle: saline): 95 % of control

Structure (SMILES): CN(C)C=Nc1ccc([N+](=O)[O-])cc1
- T/C [1]: 101 % of control
- T/C [2]: 101 % of control
- T/C [3]: 92 % of control

Structure (SMILES): CN(C)CCCN1c2ccccc2C(C)(C)c2ccccc21
- T/C (dose: 12.5 mg/kg/injection, schedule: Q01DX009 (ip), vehicle: saline with Tween-80): 105 % of control
- T/C (dose: 25.0 mg/kg/injection, schedule: Q01DX009 (ip), vehicle: saline with Tween-80): 103 % of control
- T/C [4]: 97 % of control
- T/C [1]: 86 % of control
- T/C [3]: 114 % of control

Structure (SMILES): N#CN(Cc1ccc(Cl)cc1Cl)C(=O)OCOc1ccc(Cl)cc1
- T/C [1]: 88 % of control
- T/C [2]: 89 % of control
- T/C [3]: 96 % of control

Structure (SMILES): COc1ccc(C(C)=O)cc1[N+](=O)[O-]
- T/C [5]: 98 % of control
- T/C [1]: 96 % of control
- T/C [6]: 97 % of control
- T/C [2]: 102 % of control
- T/C [3]: 94 % of control

Structure (SMILES): CCS(=O)(=O)CCNCCS(=O)(=O)CC
- T/C [7]: 104 % of control
- T/C (dose: 200.0 mg/kg/injection, schedule: Q04DX002 (ip), vehicle: saline with Tween-80): 93 % of control
- T/C (dose: 400.0 mg/kg/injection, schedule: Q04DX002 (ip), vehicle: saline with Tween-80): 104 % of control

Structure (SMILES): O=[N+]([O-])c1ccc(N=Nc2ccc3c(c2)-c2ccccc2C3=P(c2ccccc2)(c2ccccc2)c2ccccc2)cc1
- T/C [4]: 94 % of control
- T/C [5]: 91 % of control
- T/C [1]: 91 % of control
- T/C [6]: 94 % of control
- T/C [2]: 91 % of control

Structure (SMILES): COc1cc2c3cc1Oc1c(OC)c(OC)cc4c1C(Cc1ccc(O)c(c1)Oc1ccc(cc1)CC3N(C)CC2)CN(C)C4 (centres undefined)
- T/C [1]: 101 % of control
- T/C [2]: 93 % of control

Structure (SMILES): C=C(C)CC1(CC)C(=O)NC(=S)NC1=O
- T/C [4]: 102 % of control
- T/C [5]: 101 % of control

Structure (SMILES): O=NN(CCCl)C(=O)Nc1ccccn1
- T/C (dose: 12.5 mg/kg/injection, schedule: Q01DX001 (ip), vehicle: other): 101 % of control
- T/C (dose: 25.0 mg/kg/injection, schedule: Q01DX001 (ip), vehicle: other): 94 % of control
- T/C (dose: 50.0 mg/kg/injection, schedule: Q01DX001 (ip), vehicle: other): 101 % of control
- T/C [8]: 96 % of control

Structure (SMILES): CC(=O)OCC1OC(n2cnc(N)nc2=O)C(OC(C)=O)C1OC(C)=O (centres undefined)
- T/C (dose: 1.56 mg/kg/injection, schedule: Q01DX009 (ip), vehicle: saline): 121 % of control
- T/C (dose: 3.12 mg/kg/injection, schedule: Q01DX009 (ip), vehicle: saline): 158 % of control
- T/C (dose: 6.25 mg/kg/injection, schedule: Q01DX009 (ip), vehicle: saline): 161 % of control
- T/C (dose: 12.5 mg/kg/injection, schedule: Q01DX009 (ip), vehicle: saline): 169 % of control
- T/C (dose: 25.0 mg/kg/injection, schedule: Q01DX009 (ip), vehicle: saline): 110 % of control and 111 % of control

Structure (SMILES): Cc1ccc(-n2c(O)c(C=N)c(=O)[nH]c2=O)cc1
- T/C [1]: 101 % of control
- T/C [2]: 97 % of control
- T/C [3]: 103 % of control

Structure (SMILES): CN1CCc2cc(O)cc3c2C1Cc1ccc(O)c(O)c1-3 (centres undefined)
- T/C (dose: 25.0 mg/kg/injection, schedule: Q04DX003 (ip), vehicle: DMSO): 101 % of control
- T/C (dose: 50.0 mg/kg/injection, schedule: Q04DX003 (ip), vehicle: DMSO): 101 % of control
- T/C (dose: 100.0 mg/kg/injection, schedule: Q04DX003 (ip), vehicle: DMSO): 101 % of control
- T/C (dose: 200.0 mg/kg/injection, schedule: Q04DX003 (ip), vehicle: DMSO): 102 % of control
- T/C (dose: 200.0 mg/kg/injection, schedule: Q04DX003 (ip), vehicle: water): 105 % of control
- T/C (dose: 400.0 mg/kg/injection, schedule: Q04DX003 (ip), vehicle: water): 102 % of control
- T/C (dose: 600.0 mg/kg/injection, schedule: Q04DX003 (ip), vehicle: water): 102 % of control

Structure (SMILES): O=C(/C=C/C=C/c1ccccc1)c1ccc(Cl)cc1
- T/C (dose: 37.5 mg/kg/injection, schedule: Q04DX003 (ip), vehicle: saline with Tween-80): 97 % of control
- T/C (dose: 75.0 mg/kg/injection, schedule: Q04DX003 (ip), vehicle: saline with Tween-80): 97 % of control
- T/C (dose: 150.0 mg/kg/injection, schedule: Q04DX003 (ip), vehicle: saline with Tween-80): 89 % of control
- T/C [2]: 90 % of control
- T/C (dose: 300.0 mg/kg/injection, schedule: Q04DX003 (ip), vehicle: saline with Tween-80): 93 % of control

Structure (SMILES): Cc1ccc2c(c1)C(C(F)(F)F)(C(F)(F)F)OC(C(F)(F)F)(C(F)(F)F)N2
- T/C [9]: 104 % of control
- T/C [5]: 95 % of control
- T/C [10]: 103 % of control
- T/C [6]: 102 % of control
- T/C (dose: 400.0 mg/kg/injection, schedule: Q01DX001 (ip), vehicle: saline with Tween-80): 95 % of control

Structure (SMILES): O=C1c2ccccc2C(=O)N1C1CCCCC1
- T/C [1]: 100 % of control
- T/C [2]: 95 % of control
- T/C [3]: 95 % of control

Structure (SMILES): CC(=O)OC1CC2(O)C3CCC4CC(O)CCC4(C)C3CCC2(C)C1C1=CC(=O)OC1 (centres undefined)
- T/C [9]: 98 % of control
- T/C [10]: 101 % of control

Structure (SMILES): COC1C(O)C(CO)OC1n1cc(F)c(=O)[nH]c1=O (centres undefined)
- T/C (dose: 50.0 mg/kg/injection, schedule: Q01DX009 (ip), vehicle: saline): 104 % of control
- T/C (dose: 100.0 mg/kg/injection, schedule: Q01DX009 (ip), vehicle: saline): 100 % of control
- T/C (dose: 200.0 mg/kg/injection, schedule: Q01DX009 (ip), vehicle: saline): 115 % of control

Structure (SMILES): CCCCCCCCCCCCC[n+]1ccc(C#N)cc1
- T/C (dose: 7.5 mg/kg/injection, schedule: Q01DX001 (ip), vehicle: saline): 102 % of control
- T/C (dose: 7.5 mg/kg/injection, schedule: Q01DX009 (ip), vehicle: saline): 107 % of control
- T/C (dose: 15.0 mg/kg/injection, schedule: Q01DX001 (ip), vehicle: saline): 94 % of control
- T/C (dose: 15.0 mg/kg/injection, schedule: Q01DX009 (ip), vehicle: saline): 101 % of control
- T/C (dose: 30.0 mg/kg/injection, schedule: Q01DX001 (ip), vehicle: saline): 97 % of control

Structure (SMILES): CCOc1ccc(OCC)c(NC(=O)Nc2ccccc2Cl)c1
- T/C (dose: 25.0 mg/kg/injection, schedule: Q04DX002 (ip), vehicle: saline with Tween-80): 94 % of control
- T/C (dose: 50.0 mg/kg/injection, schedule: Q04DX002 (ip), vehicle: saline with Tween-80): 94 % of control
- T/C [7]: 90 % of control

Structure (SMILES): [N-]=[N+]=Nc1ccccc1C(=O)NCc1cnc(N)nc1N
- T/C [1]: 95 % of control
- T/C [2]: 95 % of control

Structure (SMILES): CC(C)(C)NO
- T/C (dose: 100.0 mg/kg/injection, schedule: Q01DX001 (ip), vehicle: Klucel (hydroxypropylcellulose) (HPC)): 100 % of control
- T/C (dose: 200.0 mg/kg/injection, schedule: Q01DX001 (ip), vehicle: Klucel (hydroxypropylcellulose) (HPC)): 96 % of control
- T/C (dose: 400.0 mg/kg/injection, schedule: Q01DX001 (ip), vehicle: Klucel (hydroxypropylcellulose) (HPC)): 100 % of control

Structure (SMILES): N=c1nc(N)nc(N)n1-c1ccccc1
- T/C [4]: 98 % of control
- T/C [5]: 102 % of control
- T/C [6]: 102 % of control

Structure (SMILES): C(=N\Nc1nc2ccccc2o1)/c1ccncc1
- T/C [11]: 103 % of control
- T/C (dose: 200.0 mg/kg/injection, schedule: Q04DX003 (ip), vehicle: Klucel (hydroxypropylcellulose) (HPC)): 95 % of control
- T/C (dose: 400.0 mg/kg/injection, schedule: Q04DX003 (ip), vehicle: Klucel (hydroxypropylcellulose) (HPC)): 101 % of control

Structure (SMILES): c1ccc2c(c1)ccc1c2c[n+](CCCCCCCC[n+]2cc3c4ccccc4ccc3c3ccccc32)c2ccccc12
- T/C (dose: 1.56 mg/kg/injection, schedule: Q04DX003 (ip), vehicle: distilled water + Tween-80): 114 % of control
- T/C (dose: 3.13 mg/kg/injection, schedule: Q04DX003 (ip), vehicle: distilled water + Tween-80): 124 % of control

Structure (SMILES): O=[N+]([O-])c1cc(C(F)(F)F)ccc1F
- T/C (dose: 25.0 mg/kg/injection, schedule: Q04DX003 (ip), vehicle: saline with Tween-80): 110 % of control
- T/C (dose: 50.0 mg/kg/injection, schedule: Q04DX003 (ip), vehicle: saline with Tween-80): 98 % of control
- T/C [1]: 105 % of control

Structure (SMILES): CCCCCCCCCCCCCC[N+](C)(C)Cc1cc(=O)c(O)co1
- T/C (dose: 25.0 mg/kg/injection, schedule: Q04DX003 (ip), vehicle: Klucel (hydroxypropylcellulose) (HPC)): 97 % of control
- T/C (dose: 50.0 mg/kg/injection, schedule: Q04DX003 (ip), vehicle: Klucel (hydroxypropylcellulose) (HPC)): 109 % of control
- T/C [11]: 109 % of control
- T/C [1]: 87 % of control

Structure (SMILES): Cc1nc2cc(Cl)cc([N+](=O)[O-])c2nc1C
- T/C [8]: 103 % of control
- T/C (dose: 200.0 mg/kg/injection, schedule: Q01DX001 (ip), vehicle: other): 97 % of control
- T/C (dose: 400.0 mg/kg/injection, schedule: Q01DX001 (ip), vehicle: other): 97 % of control
